Data from patent US10138251B2, “Spiro[3H-indole-3,2′-pyrrolidin]-2(1H)-one compounds and derivatives as MDM2-P53 inhibitors” (Boehringer Ingelheim International GmbH, priority 2014, dated 2018).

The compounds below were run against T1, MDM2 (Homo sapiens, UniProt Q00987) (assay: Mdm2-p53 Inhibition AlphaScreen). Details: 20 nM GST-MDM2 protein (aa 23-117), 20 nM biotinylated p53 wt peptide.
T1 construct: 20 nM GST-MDM2 protein (aa 23-117)
T1 sequence (Q00987 23-117): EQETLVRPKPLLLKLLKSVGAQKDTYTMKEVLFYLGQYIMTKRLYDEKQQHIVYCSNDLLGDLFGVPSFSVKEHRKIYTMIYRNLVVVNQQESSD
Type: binding
Method: Mdm2-p53 Inhibition AlphaScreen
15 μL of compound in 20% DMSO (serial pre-dilutions of compound are done in 100% DMSO) is pipetted to the wells of a white OptiPlate-96 (PerkinElmer). A mix consisting of 20 nM GST-MDM2 protein (aa 23-117) and 20 nM biotinylated p53 wt peptide (encompassing aa 16-27 of wt human p53, amino acid sequence QETFSDLWKLLP-Ttds-Lys-Biotin, molecular weight 2132.56 g/mol) is prepared in assay buffer (50 mM Tris/HCl pH 7.2; 120 mM NaCl; 0.1% bovine serum albumin (BSA); 5 mM dithiothreitol (DTT); 1 mM ethylenediaminetetraacetic acid (EDTA); 0.01% Tween 20). 30 μL of the mix is added to the compound dilutions and incubated for 15 min at rt while gently shaking the plate at 300 rounds per minute (rpm). Subsequently, 15 μL of premixed AlphaLISA Glutathione Acceptor Beads and AlphaScreen Streptavidin Donor Beads from PerkinElmer (in assay buffer at a concentration of 10 μg/mL each) are added and the samples are incubated for 30 min at rt in the dark (shaking 300 rpm). Afterwards, the signal is measured in a PerkinElmer Envision HTS Multilabel Reader using the AlphaScreen protocol from PerkinElmer.
Each plate contains negative controls where biotinylated p53-peptide and GST-MDM2 are left out and replaced by assay buffer. Negative control values are entered as low basis value when using the software GraphPad Prism for calculations. Furthermore, a positive control (5% DMSO instead of test compound; with protein/peptide mix) is pipetted. Determination of IC50 values are carried out using GraphPad Prism 3.03 software (or updates thereof).
An IC50 of 607 nM was found for `CN(C)c1cccc(C(=O)N2CC[C@H]3C2[C@H](c2cccc(Cl)c2F)[C@]2(C(=O)Nc4cc(Cl)ccc42)N3CC2CC2)c1` (some centres unmarked) [Compound I-87] in this work. An IC50 of 381 nM was found for `CN(C)CC(=O)N1CC[C@H]2C1[C@H](c1cccc(Cl)c1F)[C@]1(C(=O)Nc3cc(Cl)ccc31)N2CC1CC1` (some centres unmarked) [Compound I-78] in this work. An IC50 of 130 nM was found for `O=C(O)C1CC1CN1CC[C@H]2[C@@H]1[C@H](c1cccc(Cl)c1F)[C@]1(C(=O)Nc3cc(Cl)ccc31)N2CC1CC1` (some centres unmarked) [Compound I-63] in this work. An IC50 of 107 nM was found for `CN(C)C(=O)CCC(=O)N1CC[C@H]2C1[C@H](c1cccc(Cl)c1F)[C@]1(C(=O)Nc3cc(Cl)ccc31)N2CC1CC1` (some centres unmarked) [Compound I-84] in this work. An IC50 of 209 nM was found for `CCOc1cccc(CN2[C@@H]3CCN(CC4CC4C(=O)O)[C@@H]3[C@@H](c3cccc(Cl)c3F)[C@@]23C(=O)Nc2cc(Cl)ccc23)c1` (some centres unmarked) [Compound I-66] in this work. An IC50 of 444 nM was found for `CC(=O)Nc1ccc(C(=O)N2CC[C@H]3C2[C@H](c2cccc(Cl)c2F)[C@]2(C(=O)Nc4cc(Cl)ccc42)N3CC2CC2)c(C)c1` (some centres unmarked) [Compound I-81] in this work. An IC50 of 389 nM was found for `CC(=O)Nc1ccc(C(=O)N2CC[C@H]3C2[C@H](c2cccc(Cl)c2F)[C@]2(C(=O)Nc4cc(Cl)ccc42)N3CC2CC2)cc1` (some centres unmarked) [Compound I-82] in this work. An IC50 of 28 nM was found for `CCOc1cccc(CN2[C@H]3CCN(C(C)=O)C3[C@H](c3cccc(Cl)c3F)[C@]23C(=O)Nc2cc(Cl)ccc23)c1` (some centres unmarked) [Compound I-88] in this work. An IC50 of 871 nM was found for `O=C1Nc2nc(Cl)ccc2[C@@]12[C@@H](c1cccc(Cl)c1F)[C@@H]1NCC[C@@H]1N2CC1CC1` [Compound I-23] in this work. An IC50 of 3 nM was found for `CCOc1cccc(CN2[C@H]3CCN(CC(=O)O)[C@H]3[C@H](c3cccc(Cl)c3F)[C@]23C(=O)Nc2cc(Cl)ccc23)c1` [Compound I-69] in this work. An IC50 of 623 nM was found for `CCOC(=O)c1ccc([C@H]2C[C@H]3[C@@H](N2)[C@H](c2cccc(Cl)c2F)[C@]2(C(=O)Nc4cc(Cl)c(F)cc42)N3CC2CC2)cc1` [Compound I-13] in this work. An IC50 of 5 nM was found for `CCOc1cccc(CN2[C@H]3C[C@@H](c4ccc(C(=O)O)cc4)N[C@H]3[C@H](c3cccc(Cl)c3F)[C@]23C(=O)Nc2cc(Cl)ccc23)c1` [Compound I-37] in this work. An IC50 of 377 nM was found for `O=C(O)c1cccc(C(=O)N2CC[C@H]3C2[C@H](c2cccc(Cl)c2F)[C@]2(C(=O)Nc4cc(Cl)ccc42)N3CC2CC2)c1` (some centres unmarked) [Compound I-93] in this work. An IC50 of 173 nM was found for `COc1cc(C(=O)O)ccc1[C@@H]1C[C@H]2[C@@H](N1)[C@H](c1cccc(Cl)c1)[C@]1(C(=O)Nc3cc(Cl)ccc31)N2CC1CC1` [Compound I-26] in this work. An IC50 of 722 nM was found for `CCOc1cccc(CN2[C@@H]3CCN(CC(=O)O)[C@@H]3[C@@H](c3cccc(Cl)c3F)[C@@]23C(=O)Nc2cc(Cl)ccc23)c1` [Compound I-71] in this work. An IC50 of 2 nM was found for `CCOc1cccc(CN2[C@H]3C[C@H](c4ccc(C(=O)O)cc4)N[C@H]3[C@H](c3cccc(Cl)c3F)[C@]23C(=O)Nc2cc(Cl)ccc23)c1` [Compound I-38] in this work. An IC50 of 85 nM was found for `O=C(O)CN1CC[C@H]2[C@@H]1[C@H](c1cccc(Cl)c1)[C@]1(C(=O)Nc3cc(Cl)ccc31)N2CC1CC1` [Compound I-60] in this work. An IC50 of 102 nM was found for `O=C(CCO)N1CC[C@H]2C1[C@H](c1cccc(Cl)c1F)[C@]1(C(=O)Nc3cc(Cl)ccc31)N2CC1CC1` (some centres unmarked) [Compound I-83] in this work. An IC50 of 212 nM was found for `CC(=O)N1CC[C@H]2C1[C@H](c1cccc(Cl)c1F)[C@]1(C(=O)Nc3cc(Cl)ccc31)N2CC1CC1` (some centres unmarked) [Compound I-76] in this work. An IC50 of 596 nM was found for `O=C(c1ncccn1)N1CC[C@H]2C1[C@H](c1cccc(Cl)c1F)[C@]1(C(=O)Nc3cc(Cl)ccc31)N2CC1CC1` (some centres unmarked) [Compound I-80] in this work. An IC50 of 119 nM was found for `COCC(=O)N1CC[C@H]2C1[C@H](c1cccc(Cl)c1F)[C@]1(C(=O)Nc3cc(Cl)ccc31)N2CC1CC1` (some centres unmarked) [Compound I-77] in this work. An IC50 of 5 nM was found for `O=C(O)c1ccc([C@H]2C[C@H]3[C@@H](N2)[C@H](c2cccc(Cl)c2F)[C@]2(C(=O)Nc4cc(Cl)ccc42)N3CC2CC2)cc1` [Compound I-29] in this work. An IC50 of 16 nM was found for `NC(=O)c1ccc([C@H]2C[C@H]3[C@@H](N2)[C@H](c2cccc(Cl)c2F)[C@]2(C(=O)Nc4cc(Cl)ccc42)N3CC2CC2)cc1` [Compound I-75] in this work.
